Test results reported in the supplement of paper PMC10307832.

Key:
Test in all cases: relative viability (nuclei count vs DMSO), 5 days (fraction); higher = more cells survive
AZ505 + Decitabine = compound: C1CCC(CC1)N(CCNCCC2=C3C(=C(C=C2)O)NC(=O)CO3)C(=O)CCNCCC4=CC(=C(C=C4)Cl)Cl [AZ505] + Nc1ncn([C@H]2C[C@H](O)[C@@H](CO)O2)c(=O)n1 [Decitabine] (partner 2 µM)
In short: (§1)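 Lung cancer cell lines in 1536-well plates were dosed by pin tool the day after seeding, either with one drug alone or with a fixed anchor-drug dose plus five library-drug doses (not always all listed) in √10 steps. After 5 days, cells were fixed and their nuclei stained in one step (final 0.05% Triton X-100, 1% formaldehyde, 1 ug/ml Hoechst), then counted on 4× images. Relative viability is the nuclei count in treated wells divided by that in vehicle wells. Values are medians of duplicate plates.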

AZ505 + Vorinostat = compound: C1CCC(CC1)N(CCNCCC2=C3C(=C(C=C2)O)NC(=O)CO3)C(=O)CCNCCC4=CC(=C(C=C4)Cl)Cl [AZ505] + O=C(CCCCCCC(=O)Nc1ccccc1)NO [Vorinostat] (partner 1 µM)
In short: as §1

Dactolisib + Lapatinib = compound: Cn1c(=O)n(-c2ccc(C(C)(C)C#N)cc2)c2c3cc(-c4cnc5ccccc5c4)ccc3ncc21 [Dactolisib] + CS(=O)(=O)CCNCc1ccc(-c2ccc3ncnc(Nc4ccc(OCc5cccc(F)c5)c(Cl)c4)c3c2)o1 [Lapatinib] (partner 2 µM)
In short: as §1

Dactolisib + Alpelisib = compound: Cn1c(=O)n(-c2ccc(C(C)(C)C#N)cc2)c2c3cc(-c4cnc5ccccc5c4)ccc3ncc21 [Dactolisib] + Cc1nc(NC(=O)N2CCC[C@H]2C(N)=O)sc1-c1ccnc(C(C)(C)C(F)(F)F)c1 [Alpelisib] (partner 2 µM)
In short: as §1

Cell Line	relative viability (AZ505 + Decitabine; first compound 0.08 µM)	relative viability (AZ505 + Decitabine; first compound 0.253 µM)	relative viability (AZ505 + Decitabine; first compound 0.8 µM)	relative viability (AZ505 + Decitabine; first compound 2.53 µM)	relative viability (AZ505 + Decitabine; first compound 8 µM)	relative viability (AZ505 + Vorinostat; first compound 0.08 µM)	relative viability (AZ505 + Vorinostat; first compound 0.253 µM)	relative viability (AZ505 + Vorinostat; first compound 0.8 µM)	relative viability (AZ505 + Vorinostat; first compound 2.53 µM)	relative viability (AZ505 + Vorinostat; first compound 8 µM)	relative viability (Dactolisib + Lapatinib; first compound 0.002 µM)	relative viability (Dactolisib + Lapatinib; first compound 0.006325 µM)	relative viability (Dactolisib + Lapatinib; first compound 0.02 µM)	relative viability (Dactolisib + Lapatinib; first compound 0.06325 µM)	relative viability (Dactolisib + Lapatinib; first compound 0.2 µM)	relative viability (Dactolisib + Alpelisib; first compound 0.002 µM)	relative viability (Dactolisib + Alpelisib; first compound 0.006325 µM)	relative viability (Dactolisib + Alpelisib; first compound 0.02 µM)	relative viability (Dactolisib + Alpelisib; first compound 0.06325 µM)	relative viability (Dactolisib + Alpelisib; first compound 0.2 µM)
201T	0.857	0.863	0.812	0.877	0.824	0.877	0.998	0.903	0.907	0.976	1.07	1.05	0.991	0.956	0.969	1.01	0.994	0.986	0.98	0.688
A549		0.264	0.295	0.22	0.284						1.07	0.769	0.674	0.224	0.145	0.966	0.715	0.614	0.146	0.083
A-427	0.58	0.551	0.488	0.525	0.574	0.877	0.839	0.82	0.872	0.837	1.06	1.04	0.928	0.883	0.776	1.16	1.01	1.03	0.733	0.578
ABC-1	1.07		1.11	0.938	1.04	1.07		0.976	1.14	1.14	1.18	1.04	0.982	0.808	0.707	1.2	1.01	0.816	0.571	0.431
BEN	0.714	0.655	0.752	0.768	0.78	0.494	0.603	0.54	0.592	0.591	0.882	0.624	0.657	0.408	0.274	1.01	0.89	0.808	0.47	0.277
CAL-12T						0.577	0.971	0.692	0.849	1.01	0.792	0.567	0.537	0.366	0.258	1.53	1.13	1.2	0.205	0.206
Calu-6											1.18	1.08	0.98	0.645	0.531	0.99	0.897	0.694	0.401	0.338
ChaGo-K-1	0.51	0.529	0.478	0.541	0.517	0.695	0.758	0.816	0.682	0.775										
EBC-1											0.237	0.203	0.241	0.19	0.182	0.832	0.742	0.58	0.243	0.207
IA-LM						0.878		0.933		1.17	0.769	0.671	0.771	0.156	0.106	0.636	0.663	0.793	0.179	0.186
LCLC-103H	0.73	0.674	0.707	0.751	0.702	0.682	0.689	0.694	0.695	0.735						1.01	0.943	0.95	0.673	0.539
NCI-H441	0.287	0.245	0.232	0.25	0.264	0.786	0.881	0.735	0.782	0.876						1.05	0.74	0.685	0.429	0.271
NCI-H522	0.602	0.689	0.657	0.599	0.634	0.688	0.909	0.927	0.874	0.818										
NCI-H1299											0.998	0.974	0.98	0.893	0.661	1.07	1.08	1.1	0.829	0.905
NCI-H1563											0.939	0.892	0.816	0.72	0.582	0.851	0.86	0.706	0.605	0.588
NCI-H1648		0.508	0.538	0.615	0.522		0.43	0.418	0.526	0.573										
NCI-H1650	0.367	0.405	0.502	0.368	0.427	0.54	0.602	0.605	0.725	0.457	0.847	0.701	0.73	0.449	0.431					
NCI-H1703											0.688	0.796	0.716	0.379	0.314	0.205	0.329	0.34	0.267	0.216
NCI-H1792	0.494	0.481	0.602	0.51	0.604						1.05	0.943	0.859	0.792	0.293	0.783	0.671	0.549	0.165	0.125
NCI-H2228						0.409	0.589	0.543	0.643	0.588	0.993	0.914	0.496	0.246	0.246	0.786	0.461	0.421	0.198	0.234
NCI-H2342	0.792	0.759	0.728	0.734	0.841	0.799	0.844	0.84	0.866	0.83										
SW 900	0.537	0.545	0.419	0.462	0.489	0.536	0.303	0.43	0.675	0.678										
